Converted amounts (≈) assume the structure as drawn. Where two headings read alike, the source gives them in different places.
How the values were obtained:
[1] = biological target: MtrD_(CR103) multidrug efflux pump (MtrD from N. gonorrhoeae strain CR.103) (Neisseria gonorrhoeae strain CR.103) (UniProt Q51073); assay: cryo-EM structure; 2 μM MtrD_(CR103)-nanodisc sample incubated with 100 μM CASP, 20 μM Col or 50 μM LL for 2 h; single-particle cryo-EM
[2] = test system: N. gonorrhoeae WHO X mtrD::kan; assay: Nov MIC against gonococci by agar dilution, WHO X mtrD::kan; type: cell-based; conditions: Neisseria gonorrhoeae
Method: (§1) The MICs for Nov were determined by agar dilution as described previously ([53]). The construction of the mtrD::kan transformants was described previously ([3], [61]); note that WHO X was originally termed H041.

N. subflava ATCC 49275 = assay: MIC of Nov for N. subflava; type: cell-based; conditions: Neisseria subflava, ATCC49275
E. coli K-12 = assay: MIC of Nov for E. coli K-12; type: cell-based; conditions: Escherichia coli, K12
P. aeruginosa = assay: MIC of Nov for P. aeruginosa; type: cell-based; conditions: Pseudomonas aeruginosa
E. coli K-12 ΔtolC::kan = assay: MIC of Nov for E. coli K-12 ΔtolC::kan; type: cell-based; conditions: Escherichia coli, read-out: MIC of Nov
N. gonorrhoeae FA19 = assay: Nov MIC against gonococci by agar dilution, FA19; type: cell-based; conditions: Neisseria gonorrhoeae, strain FA19
Method: as §1

[3] = test system: E. coli BL21(DE3) ΔacrB/pACYCΩmtrCDE; assay: MIC of antibiotics for E. coli BL21(DE3) ΔacrB/pACYCΩmtrCDE; type: cell-based; conditions: Escherichia coli
N. gonorrhoeae WHO X = assay: Nov MIC against gonococci by agar dilution, WHO X; type: cell-based; conditions: Neisseria gonorrhoeae, strain WHO X
Method: as §1

[4] = test system: N. gonorrhoeae FA19 mtrD::kan; assay: Nov MIC against gonococci by agar dilution, FA19 mtrD::kan; type: cell-based; conditions: Neisseria gonorrhoeae
Method: as §1

[5] = test system: S. enterica subsp. enterica; assay: MIC of Nov for S. enterica subsp. enterica; type: cell-based; conditions: Salmonella enterica

Molecule: MtrD_(CR103) multidrug efflux pump (MtrD from N. gonorrhoeae strain CR.103) (from UniProt Q51073 1-1067) (natural protein)
- stoichiometry N [1]: 3

Molecule: CO[C@@H]1[C@@H](OC(N)=O)[C@@H](O)[C@H](Oc2ccc3c(O)c(NC(=O)c4ccc(O)c(CC=C(C)C)c4)c(=O)oc3c2C)OC1(C)C [Nov, novobiocin]
- MIC [2]: 0.25 µg/mL (≈ 0.408 µM)
- MIC (N. subflava ATCC 49275): 1 µg/mL
- MIC (E. coli K-12): > 128 µg/mL
- MIC (P. aeruginosa): > 1000 µg/mL
- MIC (E. coli K-12 ΔtolC::kan): 4 µg/mL
- MIC (N. gonorrhoeae FA19): 0.25 µg/mL (≈ 0.408 µM)
- MIC ([3]; read-out: MIC for Nov): 125 µg/mL
- MIC (N. gonorrhoeae WHO X): 1 µg/mL (≈ 1.63 µM)
- MIC [4]: 0.06 µg/mL (≈ 0.0979 µM)
- MIC [5]: 512 µg/mL

Molecule: [H]/N=C(/N)N[C@H]1[C@H](O)[C@@H](O)[C@H](O[C@@H]2O[C@@H](C)[C@](O)(C=O)[C@H]2O[C@@H]2O[C@@H](CO)[C@H](O)[C@@H](O)[C@@H]2NC)[C@@H](N/C(N)=N\[H])[C@@H]1O [streptomycin]
- MIC ([3]; read-out: MIC of streptomycin): 8 µg/mL
